Laboratory results as given in patent publication US20100204237A1, “Hydroxypyrimidinone derivatives having inhibitory activity against HIV integrase” (priority 2003, published 2010).
≈ marks a conversion by molar mass, not a printed value.

Legend:
HIV (HTLV-IIIB strain) = assay: inhibitory activities against HIV cell proliferation, MT-4 cells, MTT (Experimental Example 2); type: cell-based; conditions: Human immunodeficiency virus 1, IIIB, MT4, 96 h, concentration at which 50% of cytopathy caused by viruses was inhibited, 4 days, read-out: Experimental example 2 (EC50, ng/ml)
Experimental: The inhibitory activities against HIV cell proliferation were determined by the assay method described below. • (1) HIV (HTLV-IIIB strain) persistence infection human T-cell strain Molt-4 clone 8 was cultured on RPMI-1640 medium supplemented with 10% fetal bovine serum, and the supernatant was measured for viral titer after filtration, and stored at −80° C. On the other hand, each anti-HIV active agent was diluted in the above culture medium to a predetermined concentration, and each well of a 96-well microplate was added with 50 μl of the resultant active agent solution. Then, 100 μl (3.5×10^4 cells) each of MT-4 cell suspension was poured into each well, followed by each 50 μl (60 pfu (plaque forming unit)) of the HIV-containing supernatant diluted with the above culture medium. • (2) After incubating for 4 days in a carbon dioxide incubator at 37° C., every well was added with 30 μl of 3-(4,5-dimethylthiazole-2-yl)-2,5-diphenyltetrazolium bromide (MTT) 5 mg/ml), PBS, and incubated for another 1 hour. At this time, since living cells reduce MTT to cause precipitation of formazane, 150 μl of cell supernatant was removed from each well, and instead 150 μl of lysis solution (isopropanol supplemented with 10% Triton X-100 and 0.4% (v/v) HCl) was added, to make formazane eluate by shaking with a plate mixer. […] The concentration of Compound at which 50% of cytopathy caused by viruses was inhibited was defined as EC50.

HIV integrase = HIV integrase (Human immunodeficiency virus type 1 group M subtype B, UniProt P04585); assay: inhibitory activities against integrase (Experimental Example 1); type: biochemical; conditions: integrase inhibition, OD405 nm plate assay; read-out: Experimental example 1 (IC50, ng/ml) (converted)
Experimental: The inhibitory activities against integrase were determined by the assay described below.
A substrate DNA, solution (2 pmol/μl) and a target DNA solution (5 pmol/μl) were prepared in the manner as described in Experimental example 1 of WO 2004/024693. Before using the DNA solutions, complementary chains were annealed by slowly cooling after boiling. Substrate DNA and target DNA had sequences as described in that Experimental example.
Streptavidin, obtained from Vector Laboratories, was dissolved in 0.1 M carbonate buffer (composition: 90 mM Na2CO3, 10 mM NaHCO3) at concentration of 40 μg/ml. After coating each well of immunoplates (obtained from NUNC) with 50 μl of the above solution at 4° C. over night, each well was washed twice with PBS (composition: 13.7 mM NaCl, 0.27 mM KCl, 0.43 mM Na2HPO4, 0.14 mM KH2PO4) and blocked with 300 μl of 1% skim milk in PBS for 30 min. Additionally, each well was washed twice with PBS and added 50 μl of substrate DNA solution (2 pmol/μl). The immunoplates were kept at room temperature for 30 min while shaking. Then, each well was washed twice with PBS and once with H2O.
Subsequently, in the each well prepared above were added 51 μl of the reaction solution prepared from 12 μl of the buffer (composition: 150 mM MOPS (pH 7.2), 75 mM MnCl2, 50 mM 2-mercaptoethanol, 25% glycerol, 500 μg/ml bovine serum albumin-fraction V), and 39 μl of the distilled water. Then 9 μl of an integrase solution (30 pmol) was added and mixed well. In the well of negative control (NC) was added 9 μl of the integrase dilution buffer (composition: 20 mM MOPS (pH7.2), 400 mM potassium glutamate, 1 mM EDTA, 0.1% NP-40, 20% glycerol, 1 mM DTT, 4M urea), and mixed well using a plate mixer.
The plates were incubated at 30° C. for 60 minutes. The reaction solution was removed and washed three times with 250 μl of washing buffer (composition: 150 mM MOPS (pH7.2), 50 mM 2-mercaptoethanol, 25% glycerol, 500 μg/ml bovine serum albumin-fraction V).
Then each well was added with 53 μl of reaction solution prepared from 12 μl of buffer (composition: 150 mM MOPS (pH7.2), 75 mM MgCl2, 50 mM 2-mercaptoethanol, 25% glycerol, 500 μg/ml bovine serum albumin-fraction V) and 41 μl of distilled water. Further, each well was added with 6 μl of DMSO solution of a compound to be tested, and the well of positive control (PC) was added with 6 μl of DMSO, and mixed well by a plate mixer. After incubating the plate for 30 minutes at 30° C., was added 1 μl of target DNA (5 pmol/μl), and mixed well by a plate mixer.
After incubation for 10 minutes at 30° C., each plate was washed twice with PBS after removal of the reaction solution. […] The optical density at 405 nm (OD405 nm) of each well was measured and the inhibition rate (IC50) was determined by the following expression. […]

| SMILES | EC50 (HIV (HTLV-IIIB strain)) [ng/mL] | melting point [°C] | IC50 (HIV integrase) [nM] |
| --- | --- | --- | --- |
| CC(=O)N1CCC[C@H]1c1nc(-c2nnc(Cc3ccc(F)cc3)o2)c(O)c(=O)n1C [Compound I-2] | 38 (≈ 0.0919 µM) | 170 to 172 | 138 |
| CN(C(=O)c1ccccn1)C(C)(C)c1nc(-c2ncc(Cc3ccc(F)cc3)s2)c(O)c(=O)[nH]1 [Compound I-45] | 5.6 (≈ 0.0117 µM) | 245 | 12.1 |
| CCN1C(C)n2c(nc(-c3ncc(Cc4ccc(F)cc4)s3)c(O)c2=O)C1(C)C (centres unmarked) [Compound I-60] | 18 (≈ 0.0434 µM) | 165 to 168 | 15.9 |
| Cc1nc(-c2nnc(Cc3ccc(F)cc3)o2)c(O)c(=O)[nH]1 [Comparative example 1, reference compound] | 19000 (≈ 62.9 µM) | – | 92.6 |
